Reference: US7011816B2, “Labeling targeting agents with gallium-68 and gallium-67” (Immunomedics, Inc., priority 2001, dated 2006)
*1 amine or outer side, *2 acyl side, *3 side chain or, on linkers, in order; H or OH if unused. Where a SMILES comes first, the peptide text is derived from it. Side-chain parts run from the residue outwards. [ ]: non-standard residue; d: D form. The star is where a group is joined. DOTA = O=C(O)CN1CCN(CC(=O)O)CCN(CC(=O)*)CCN(CC(=O)O)CC1; NH(2-(imidazol-4-yl)ethyl) = c1ncc(CCN*)[nH]1; Suc = O=C(CCC(=O)[*:2])[*:1]

How the values were obtained:
Design in all cases: species or system nude mice
[1] = test system: GW39 human colon tumor xenografts; settings: mouse, in vivo
Method: (§1) The bispecific antibody I-125-hMN-14×679-F(ab′)2 (anti-CEA×anti-HSG, radiolabeled with iodine-125 as a tracer radionuclide) was injected into nude mice bearing GW39 human colon tumor xenografts. Twenty-four hours later, the Ga-67-IMP 241 peptide, prepared according to the method described in Example # 4, was injected. At specified times post-injection, five animals per time-point were sacrificed and tissues collected and counted for both I-125 and Ga-67 radioactivity, using dual energy windows for each respective radionuclide. Additionally, biodistribution of Ga-67-IMP 241 given alone, without bsAb pretargeting is shown in Table 3 (four animals per group in this series). In each Table, the data is presented in terms of percent injected dose per gram of tissue (± standard deviation). Additionally, the biodistribution data for I-125-hMN-14×679-F(ab′)2 and Ga-67-IMP 241, from the same experiment, is reported in terms of tumor-to non-tumor ratio (T/NT) (Tables 4 & 5, for 1–125 and Ga-67, respectively).

[2] = test system: GW39 human colon tumor xenografts; assay: in vivo; settings: mouse
Method: as §1

in vivo = settings: nude, mouse, total radioactivity
Method: as §1

[3] = Tumor-to-tissue ratio Lg. Intestine
[4] = Tumor-to-tissue ratio Sm. Intestine

Q: Which “Clearance when given alone” value [1] does the source give for NC(=O)[C@H](CCCCNC(=O)CNC(=O)CCC(=O)NCCc1cnc[nH]1)NC(=O)[C@@H](Cc1ccc(O)cc1)NC(=O)[C@H](CCCCNC(=O)CNC(=O)CCC(=O)NCCc1cnc[nH]1)NC(=O)[C@H](Cc1ccccc1)NC(=O)CN1CCN(CC(=O)O)CCN(CC(=O)O)CCN(CC(=O)O)CC1 [Ga-67-IMP 241, metal not drawn] ({DOTA}-FK([Gly-Suc-NH(2-(imidazol-4-yl)ethyl)])[dY]K([Gly-Suc-NH(2-(imidazol-4-yl)ethyl)])-NH2) here?
A: essentially clears completely within the first hour post-injection

Q: What about the “Tumor-to-tissue ratio Blood” value [2] of the same compound?
A: above 6:1

Q: What about the “Tumor-to-tissue ratio Kidney” value [2] of the same compound?
A: ~3.5:1

Q: And the tissue to tissue ratio at 1 h (in vivo; Tumor-to-tissue ratio Blood)?
A: 1.7 ± 0.8

Q: And the tissue to tissue ratio at 2 h (in vivo; Tumor-to-tissue ratio Blood)?
A: 6.1 ± 5

Q: And the tissue to tissue ratio at 3 h (in vivo; Tumor-to-tissue ratio Blood)?
A: 8.5 ± 9.5

Q: What about the tissue to tissue ratio at 4 h (in vivo; Tumor-to-tissue ratio Blood) of the same compound?
A: 8.7 ± 4.6

Q: What about the tissue to tissue ratio at 6 h (in vivo; Tumor-to-tissue ratio Blood) of the same compound?
A: 12.1 ± 8

Q: And the tissue to tissue ratio at 1 h (in vivo; Tumor-to-tissue ratio Bone)?
A: 11.5 ± 11

Q: What about the tissue to tissue ratio at 2 h (in vivo; Tumor-to-tissue ratio Bone) of the same compound?
A: 24.6 ± 15.1

Q: And the tissue to tissue ratio at 3 h (in vivo; Tumor-to-tissue ratio Bone)?
A: 17.8 ± 13.7

Q: What about the tissue to tissue ratio at 4 h (in vivo; Tumor-to-tissue ratio Bone) of the same compound?
A: 18.3 ± 3.1

Q: What about the tissue to tissue ratio at 6 h (in vivo; Tumor-to-tissue ratio Bone) of the same compound?
A: 53 ± 41.7

Q: And the tissue to tissue ratio at 1 h (in vivo; Tumor-to-tissue ratio Kidney)?
A: 2.3 ± 1.6

Q: And the tissue to tissue ratio at 2 h (in vivo; Tumor-to-tissue ratio Kidney)?
A: 3.5 ± 2.2

Q: And the tissue to tissue ratio at 3 h (in vivo; Tumor-to-tissue ratio Kidney)?
A: 2.4 ± 1.8

Q: What about the tissue to tissue ratio at 4 h (in vivo; Tumor-to-tissue ratio Kidney) of the same compound?
A: 3.1 ± 1.1

Q: And the tissue to tissue ratio at 6 h (in vivo; Tumor-to-tissue ratio Kidney)?
A: 4.3 ± 2.7

Q: What about the tissue to tissue ratio at 1 h (in vivo; [3]) of the same compound?
A: 67.3 ± 44.1

Q: And the tissue to tissue ratio at 2 h (in vivo; [3])?
A: 74.2 ± 55

Q: And the tissue to tissue ratio at 3 h (in vivo; [3])?
A: 72.7 ± 89

Q: And the tissue to tissue ratio at 4 h (in vivo; [3])?
A: 56.5 ± 21.7

Q: And the tissue to tissue ratio at 6 h (in vivo; [3])?
A: 162 ± 270

Q: What about the tissue to tissue ratio at 1 h (in vivo; Tumor-to-tissue ratio Liver) of the same compound?
A: 8 ± 3.8

Q: And the tissue to tissue ratio at 2 h (in vivo; Tumor-to-tissue ratio Liver)?
A: 15.9 ± 8.9

Q: What about the tissue to tissue ratio at 3 h (in vivo; Tumor-to-tissue ratio Liver) of the same compound?
A: 13.1 ± 12

Q: And the tissue to tissue ratio at 4 h (in vivo; Tumor-to-tissue ratio Liver)?
A: 16.2 ± 8.6

Q: What about the tissue to tissue ratio at 6 h (in vivo; Tumor-to-tissue ratio Liver) of the same compound?
A: 16 ± 10.5

Q: What about the tissue to tissue ratio at 1 h (in vivo; Tumor-to-tissue ratio Lungs) of the same compound?
A: 4.5 ± 1.9

Q: What about the tissue to tissue ratio at 2 h (in vivo; Tumor-to-tissue ratio Lungs) of the same compound?
A: 13.1 ± 7.5

Q: And the tissue to tissue ratio at 3 h (in vivo; Tumor-to-tissue ratio Lungs)?
A: 11.4 ± 11.1

Q: And the tissue to tissue ratio at 4 h (in vivo; Tumor-to-tissue ratio Lungs)?
A: 13.5 ± 5.9

Q: What about the tissue to tissue ratio at 6 h (in vivo; Tumor-to-tissue ratio Lungs) of the same compound?
A: 20.2 ± 12.5

Q: And the tissue to tissue ratio at 1 h (in vivo; [4])?
A: 18.6 ± 9.1

Q: What about the tissue to tissue ratio at 2 h (in vivo; [4]) of the same compound?
A: 27.7 ± 9.1

Q: And the tissue to tissue ratio at 3 h (in vivo; [4])?
A: 35.5 ± 26

Q: And the tissue to tissue ratio at 4 h (in vivo; [4])?
A: 22 ± 12.7

Q: What about the tissue to tissue ratio at 6 h (in vivo; [4]) of the same compound?
A: 47.2 ± 35.9

Q: And the tissue to tissue ratio at 1 h (in vivo; Tumor-to-tissue ratio Spleen)?
A: 10.7 ± 7.2

Q: And the tissue to tissue ratio at 2 h (in vivo; Tumor-to-tissue ratio Spleen)?
A: 26.6 ± 28.7

Q: And the tissue to tissue ratio at 3 h (in vivo; Tumor-to-tissue ratio Spleen)?
A: 16.3 ± 13.1

Q: And the tissue to tissue ratio at 4 h (in vivo; Tumor-to-tissue ratio Spleen)?
A: 26.1 ± 23.4

Q: What about the tissue to tissue ratio at 6 h (in vivo; Tumor-to-tissue ratio Spleen) of the same compound?
A: 17.4 ± 12.7

Q: What about the tissue to tissue ratio at 1 h (in vivo; Tumor-to-tissue ratio Stomach) of the same compound?
A: 36.7 ± 22.8

Q: And the tissue to tissue ratio at 2 h (in vivo; Tumor-to-tissue ratio Stomach)?
A: 52.8 ± 17.6

Q: And the tissue to tissue ratio at 3 h (in vivo; Tumor-to-tissue ratio Stomach)?
A: 73.6 ± 47.4

Q: What about the tissue to tissue ratio at 4 h (in vivo; Tumor-to-tissue ratio Stomach) of the same compound?
A: 56.9 ± 36

Q: And the tissue to tissue ratio at 6 h (in vivo; Tumor-to-tissue ratio Stomach)?
A: 112 ± 60.7
